According to PubChem BioAssay AID330 (DTP/NCI, 2004):
“And” between values parts separate entries of the source, which are not always exact repeats. Equal values may be shown once. Inconclusive results and toxic doses are left out. Rule for the calls: active = survival T/C of 150% or more; inactive = T/C below 125% in these data.

Tested on: P388 leukemia ip, CD2F1 mice, survival T/C
Assay: NCI In Vivo Anticancer Drug Screen. Data for tumor model P388 Leukemia (intraperitoneal) in CD2F1 (CDF1) mice
Conditions: endpoint: median survival time, higher = longer survival
Procedure, shortened: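 Mice carrying the transplanted tumor received test compound or vehicle. Survival was recorded in each group, and the value is the treated-group measurement divided by that of the vehicle-treated control group.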

[1] = dose: 6.25 mg/kg/injection, schedule: Q01DX009 (ip), vehicle: Klucel (hydroxypropylcellulose) (HPC)
[2] = dose: 12.5 mg/kg/injection, schedule: Q01DX009 (ip), vehicle: Klucel (hydroxypropylcellulose) (HPC)
[3] = dose: 25.0 mg/kg/injection, schedule: Q01DX009 (ip), vehicle: Klucel (hydroxypropylcellulose) (HPC)
[4] = dose: 50.0 mg/kg/injection, schedule: Q01DX009 (ip), vehicle: Klucel (hydroxypropylcellulose) (HPC)
[5] = dose: 50.0 mg/kg/injection, schedule: Q01DX005 (ip), vehicle: saline with Tween-80
[6] = dose: 100.0 mg/kg/injection, schedule: Q01DX005 (ip), vehicle: saline with Tween-80
[7] = dose: 200.0 mg/kg/injection, schedule: Q01DX005 (ip), vehicle: saline with Tween-80
[8] = dose: 50.0 mg/kg/injection, schedule: Q01DX009 (ip), vehicle: saline
[9] = dose: 100.0 mg/kg/injection, schedule: Q01DX009 (ip), vehicle: saline
[10] = dose: 200.0 mg/kg/injection, schedule: Q01DX009 (ip), vehicle: saline
[11] = dose: 100.0 mg/kg/injection, schedule: Q04DX003 (ip), vehicle: Klucel (hydroxypropylcellulose) (HPC)
[12] = dose: 50.0 mg/kg/injection, schedule: Q01DX009 (ip), vehicle: saline with Tween-80
[13] = dose: 100.0 mg/kg/injection, schedule: Q01DX009 (ip), vehicle: saline with Tween-80
[14] = dose: 200.0 mg/kg/injection, schedule: Q01DX009 (ip), vehicle: saline with Tween-80
[15] = dose: 50.0 mg/kg/injection, schedule: Q01DX005 (ip), vehicle: Klucel (hydroxypropylcellulose) (HPC)
[16] = dose: 100.0 mg/kg/injection, schedule: Q01DX005 (ip), vehicle: Klucel (hydroxypropylcellulose) (HPC)
[17] = dose: 100.0 mg/kg/injection, schedule: Q01DX009 (ip), vehicle: Klucel (hydroxypropylcellulose) (HPC)
[18] = dose: 200.0 mg/kg/injection, schedule: Q01DX005 (ip), vehicle: Klucel (hydroxypropylcellulose) (HPC)
[19] = dose: 200.0 mg/kg/injection, schedule: Q01DX009 (ip), vehicle: Klucel (hydroxypropylcellulose) (HPC)
[20] = dose: 200.0 mg/kg/injection, schedule: Q04DX003 (ip), vehicle: Klucel (hydroxypropylcellulose) (HPC)
[21] = dose: 400.0 mg/kg/injection, schedule: Q04DX003 (ip), vehicle: Klucel (hydroxypropylcellulose) (HPC)
[22] = dose: 6.25 mg/kg/injection, schedule: Q01DX009 (ip), vehicle: saline with Tween-80
[23] = dose: 12.5 mg/kg/injection, schedule: Q01DX009 (ip), vehicle: saline with Tween-80
[24] = dose: 25.0 mg/kg/injection, schedule: Q01DX009 (ip), vehicle: saline with Tween-80
[25] = dose: 25.0 mg/kg/injection, schedule: Q01DX009 (ip), vehicle: saline

Measured: T/C

CN=C(N)N/N=C(\C)c1ccc(/C(C)=N/NC(N)=NC)cc1
inactive: dose: 25.0 mg/kg/injection, schedule: Q04DX002 (ip), vehicle: saline with Tween-80 112 % of control

COc1ccc(/C=N\N=C(/[O-])c2ccccc2O)cc1.COc1ccc(/C=N\N=C(/[O-])c2ccccc2O)cc1.[OH3+].[OH3+].[Zn+2]
inactive: dose: 100.0 mg/kg/injection, schedule: Q04DX002 (ip), vehicle: saline with Tween-80 100 % of control | dose: 200.0 mg/kg/injection, schedule: Q04DX002 (ip), vehicle: saline with Tween-80 98 % of control | dose: 400.0 mg/kg/injection, schedule: Q04DX002 (ip), vehicle: saline with Tween-80 91 % of control

COc1cc2c(cc1OC)C(C)(C)N(Cc1ccccc1)C(C)C2(C)C (stereo not given)
inactive: dose: 3.12 mg/kg/injection, schedule: Q01DX009 (ip), vehicle: Klucel (hydroxypropylcellulose) (HPC) 105 % of control | [1] 105 % of control | [2] 114 % of control | [3] 107 % of control | [4] 112 % of control

NC(=S)n1nc(-c2ccccc2)c(N=Nc2ccccc2Cl)c1-c1ccccc1
inactive: [5] 117 % of control | [6] 111 % of control | [7] 108 % of control

C=CC(C)(O)CS(=O)c1ccccc1 (stereo not given)
inactive: dose: 100.0 mg/kg/injection, schedule: Q04DX003 (ip), vehicle: saline 100 % of control | dose: 200.0 mg/kg/injection, schedule: Q04DX003 (ip), vehicle: saline 101 % of control | dose: 400.0 mg/kg/injection, schedule: Q04DX003 (ip), vehicle: saline 108 % of control

CCOC(=O)NN(C(=O)OCC)/C(C(=O)OCC)=C(/C)N
inactive: [8] 97 % of control and 102 % of control and 93 % of control | [9] 97 % of control and 104 % of control | [10] 98 % of control and 89 % of control

COC(=O)C1CC2C3C=CC(C4C(=O)NC(=O)C34)C12OC (stereo not given)
inactive: dose: 100.0 mg/kg/injection, schedule: Q01DX001 (ip), vehicle: saline with Tween-80 95 % of control | dose: 200.0 mg/kg/injection, schedule: Q01DX001 (ip), vehicle: saline with Tween-80 92 % of control

C=C(C)CC1(C)CC(=O)C(C)=C(C)C1=O (stereo not given)
inactive: dose: 25.0 mg/kg/injection, schedule: Q04DX003 (ip), vehicle: Klucel (hydroxypropylcellulose) (HPC) 110 % of control | dose: 50.0 mg/kg/injection, schedule: Q04DX003 (ip), vehicle: Klucel (hydroxypropylcellulose) (HPC) 105 % of control | [11] 100 % of control

Cc1cccc(C)c1NC(=S)NC(=O)c1ccccc1
inactive: [12] 100 % of control | [13] 98 % of control | [14] 100 % of control

CC(=O)Oc1c(C)c2c(O)c3c1C1=C(OCOC1=C(C)C3=O)C(C)=CC(C)(O)C(O)C(C)C(O)C1C(=O)OC(C(C)/C=C\C=C(C)C(=O)N2)C(C)C1O (stereo not given)
inactive: [15] 108 % of control | [4] 99 % of control | [16] 108 % of control | [17] 100 % of control | [18] 108 % of control | [19] 104 % of control | dose: 400.0 mg/kg/injection, schedule: Q01DX009 (ip), vehicle: Klucel (hydroxypropylcellulose) (HPC) 103 % of control

CC1=C(C)C2(C)c3ccccc3NC(=S)C12C (stereo not given)
inactive: dose: 100.0 mg/kg/injection, schedule: Q01DX001 (ip), vehicle: Klucel (hydroxypropylcellulose) (HPC) 101 % of control | dose: 200.0 mg/kg/injection, schedule: Q01DX001 (ip), vehicle: Klucel (hydroxypropylcellulose) (HPC) 105 % of control | dose: 400.0 mg/kg/injection, schedule: Q01DX001 (ip), vehicle: Klucel (hydroxypropylcellulose) (HPC) 102 % of control

O=C1CC(O)(c2ccccc2)CS1 (stereo not given)
inactive: [11] 107 % of control | [20] 105 % of control | [21] 100 % of control

CC(C)NCC(O)COc1ccccc1C1CCCCC1 (stereo not given)
inactive: [1] 103 % of control | [22] 102 % of control | [2] 106 % of control | [23] 123 % of control and 94 % of control | [24] 102 % of control and 113 % of control | [4] 104 % of control | [12] 99 % of control and 118 % of control and 96 % of control | [17] 98 % of control

CC(=O)NNC(=O)NCCCCCCNC(=O)NNC(C)=O
inactive: [15] 101 % of control | [16] 97 % of control | [18] 92 % of control | dose: 400.0 mg/kg/injection, schedule: Q01DX005 (ip), vehicle: Klucel (hydroxypropylcellulose) (HPC) 94 % of control

CSC(=O)NC(=O)NC(=O)c1ccc([N+](=O)[O-])cc1
inactive: [15] 91 % of control | [16] 91 % of control

SC(Cc1nc2ccccc2[nH]1)c1nc2ccccc2[nH]1 (stereo not given)
inactive: dose: 100.0 mg/kg/injection, schedule: Q01DX001 (ip), vehicle: Klucel + Tween-80 93 % of control | dose: 200.0 mg/kg/injection, schedule: Q01DX001 (ip), vehicle: Klucel + Tween-80 93 % of control | dose: 400.0 mg/kg/injection, schedule: Q01DX001 (ip), vehicle: Klucel + Tween-80 100 % of control

CC(C)CC(NC(=O)C(CC(C)C)NC(=O)OCc1ccccc1)C(=O)O (stereo not given)
inactive: [5] 100 % of control | [6] 102 % of control | [7] 94 % of control

CCN(CC)CCSC(=O)C(O)(c1ccccc1)c1ccccc1
inactive: dose: 2.5 mg/kg/injection, schedule: Q01DX009 (ip), vehicle: saline 108 % of control | dose: 5.0 mg/kg/injection, schedule: Q01DX009 (ip), vehicle: saline 117 % of control | dose: 10.0 mg/kg/injection, schedule: Q01DX009 (ip), vehicle: saline 101 % of control | dose: 12.5 mg/kg/injection, schedule: Q01DX009 (ip), vehicle: saline 100 % of control | dose: 20.0 mg/kg/injection, schedule: Q01DX009 (ip), vehicle: saline 90 % of control | [25] 98 % of control | dose: 40.0 mg/kg/injection, schedule: Q01DX009 (ip), vehicle: saline 101 % of control | [8] 101 % of control (2×) and 107 % of control

COC(=O)C12Oc3ccc(-c4ccc5c(c4O)C(=O)C4=CCC(C)C(O)C4(C(=O)OC)O5)c(O)c3C(=O)C1=CCC(C)C2O (stereo not given)
inactive: dose: 2.5 mg/kg/injection, schedule: Q01DX009 (ip), vehicle: saline with Tween-80 91 % of control | dose: 5.0 mg/kg/injection, schedule: Q01DX009 (ip), vehicle: saline with Tween-80 95 % of control | dose: 10.0 mg/kg/injection, schedule: Q01DX009 (ip), vehicle: saline with Tween-80 88 % of control

NC(=O)c1ccccn1
inactive: [25] 108 % of control | [8] 110 % of control | [9] 99 % of control | [10] 99 % of control

CCN(CC)CCNc1ccc([N+](=O)[O-])c2sc3cc(Cl)ccc3c(=O)c12
inactive: [5] 100 % of control | [6] 104 % of control | [7] 102 % of control

Cc1ccc(C)n1-c1ccc(OCC(N)=O)cc1
inactive: dose: 60.0 mg/kg/injection, schedule: Q01DX005 (ip), vehicle: saline with Tween-80 104 % of control | dose: 120.0 mg/kg/injection, schedule: Q01DX005 (ip), vehicle: saline with Tween-80 97 % of control | dose: 240.0 mg/kg/injection, schedule: Q01DX005 (ip), vehicle: saline with Tween-80 90 % of control

C=CCCC(=O)SC(C)(C)C
inactive: [11] 112 % of control | [20] 110 % of control | [21] 103 % of control

COC1OC2COC(c3ccccc3)OC2C(OS(=O)(=O)c2ccc(C)cc2)C1OS(=O)(=O)c1ccc(C)cc1 (stereo not given)
inactive: [22] 114 % of control | [23] 114 % of control | [24] 108 % of control and 111 % of control | [13] 87 % of control | [14] 91 % of control

C/C=c1/[nH]c(=O)/c(=C\C=C\c2ccccc2)[nH]c1=O
inactive: [3] 106 % of control and 91 % of control | [4] 104 % of control and 91 % of control | [17] 88 % of control and 91 % of control and 95 % of control | [19] 97 % of control

Cc1ccc(S(=O)(=O)N=Nc2c(O)c3ccccc3c3ccccc23)cc1
inactive: [5] 103 % of control | [6] 103 % of control | [7] 100 % of control
